29 molecules from patent publication US12617784B2, “AKT inhibitor” (Nanjing Chia Tai Tianqing Pharmaceutical Co., Ltd., priority 2019, dated 2026) can be followed below.

One assay concerns the target T1, AKT3 (Homo sapiens, UniProt Q9Y243).
T1 construct: purchased Invitrogen PV3185
Description: In vitro enzyme activity test (HTRF kinEASE TK), AKT3. It counts as biochemical. The note with it: enzyme 0.3 ng/well, reaction 50 min. The method, then:
(§1) Experimental Procedure 2.1 Preparation of Reagents
(§2) 1 mL 1× Kinase Reaction Buffer of Kinase AKT1, AKT2 and AKT3 contain 200 μL 5× Kinase Reaction Buffer, 5 μL 1 M MgCl2, 1 μL 1 M DTT and 794 μL ultrapure water.
(§3) In addition to the control wells, 4 μL of the diluted compound working solutions were added to all reaction wells.
(§4) b) 2 μL of the previously prepared TK-biotin substrate solution was added to all reaction wells.
(§5) c) 2 μL of the previously prepared enzyme solution was added to all reaction wells, except the negative wells. The volume of the negative well was filled with 2 μL of enzyme corresponding to 1× kinase reaction buffer. The plate was sealed with sealing film. After mixing, the plate was incubated at room temperature for 10 min to allow the compound and enzyme to fully combined.
(§6) d) 2 μL of ATP solution was added to all reaction wells to start the kinase reaction.
(§7) e) The test solution was prepared 5 min before the end of the kinase reaction.
(§8) f) After the kinase reaction was completed, 5 μL of diluted streptavidin-XL665 were added to all reaction wells, and immediately the diluted europium-labeled tyrosine kinase substrate antibody detection solution was added after mixing.
(§9) g) The plate was sealed and mixed well. […] The inhibition rate of each well was calculated through the fully active wells and the background signal wells, taking the average value in case of multiple wells. Meanwhile, the professional drawing analysis software PRISM 6.0 was used to fit the half maximal inhibitory concentration (IC50) of each test compound.

The target in the next assay is AKT1 (Homo sapiens, UniProt P31749). Description: In vitro enzyme activity test (HTRF kinEASE TK), AKT1. It counts as biochemical. The note with it: ATP 2 μM, enzyme 0.6 ng/well, reaction 50 min. The method, then:
as §1, §2, §3, §4, §5, §6, §7, §8, §9

Structures can show the parent of a compound that is named as a salt.

T1 sequence (Q9Y243 whole entry): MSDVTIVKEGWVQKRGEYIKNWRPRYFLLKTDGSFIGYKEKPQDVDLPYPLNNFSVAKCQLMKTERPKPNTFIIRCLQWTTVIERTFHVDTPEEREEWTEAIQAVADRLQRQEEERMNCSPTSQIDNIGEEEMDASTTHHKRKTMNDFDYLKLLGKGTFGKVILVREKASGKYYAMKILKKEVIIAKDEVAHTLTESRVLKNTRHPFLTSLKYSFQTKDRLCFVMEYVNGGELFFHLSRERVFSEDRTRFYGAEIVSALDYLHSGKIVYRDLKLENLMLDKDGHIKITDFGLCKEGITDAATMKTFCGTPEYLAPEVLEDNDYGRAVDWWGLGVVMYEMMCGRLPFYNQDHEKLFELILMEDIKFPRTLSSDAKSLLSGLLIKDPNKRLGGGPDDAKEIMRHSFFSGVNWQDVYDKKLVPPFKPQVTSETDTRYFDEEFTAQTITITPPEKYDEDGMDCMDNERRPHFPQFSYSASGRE
Chain of AKT1 (P31749 whole entry): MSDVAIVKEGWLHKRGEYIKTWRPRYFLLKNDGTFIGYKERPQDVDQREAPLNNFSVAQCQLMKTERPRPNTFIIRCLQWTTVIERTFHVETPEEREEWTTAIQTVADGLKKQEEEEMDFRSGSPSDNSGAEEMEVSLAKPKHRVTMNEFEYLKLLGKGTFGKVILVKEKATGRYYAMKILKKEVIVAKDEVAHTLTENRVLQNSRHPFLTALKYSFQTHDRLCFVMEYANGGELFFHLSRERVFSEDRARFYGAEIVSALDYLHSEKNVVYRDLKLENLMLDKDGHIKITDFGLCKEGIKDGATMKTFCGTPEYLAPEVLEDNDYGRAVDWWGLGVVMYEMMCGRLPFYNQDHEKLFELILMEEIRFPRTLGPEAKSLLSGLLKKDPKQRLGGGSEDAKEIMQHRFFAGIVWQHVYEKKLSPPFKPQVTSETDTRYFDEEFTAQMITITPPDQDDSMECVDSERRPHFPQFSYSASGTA

Consider `CC(C)NC[C@@H](C(=O)N1CCN(c2ncnc3c2[C@@H](C(F)(F)F)CC(=O)N3)CC1)c1ccc(Cl)cc1` (single isomer, unassigned) [Example 16 Isomer 1], for which the IC50 came to 0.139 µM against AKT3 and 0.776 µM at AKT1.

On to `CC(C)NC[C@@H](C(=O)N1CCN(c2ncnc3c2[C@H](C(F)(F)F)CC(=O)N3)CC1)c1ccc(Cl)cc1` (single isomer, unassigned) [Example 16 Isomer 2], for which the figures for the IC50 at AKT3 and against AKT1 were 0.001 µM and 0.012 µM, respectively.

Consider `CC(C)NC[C@@H](C(=O)N1CCN(c2ncnc3c2C[C@@H](C)C(=O)N3)CC1)c1ccc(Cl)cc1` (single isomer, unassigned) [Example 19 Isomer 1], for which the IC50 against AKT3 was 0.018 µM; against AKT1, 0.082 µM.

Regarding `CC(C)NC[C@@H](C(=O)N1CCN(c2ncnc3c2C[C@H](C)C(=O)N3)CC1)c1ccc(Cl)cc1` (single isomer, unassigned) [Example 19 Isomer 2], the IC50 was determined as 0.0091 µM against AKT3 and 0.025 µM against AKT1.

As to `CC(C)NC[C@@H](C(=O)N1CCN(c2ncnc3c2[C@H](C)OC(=O)N3)CC1)c1ccc(Cl)cc1` (single isomer, unassigned) [Example 23 Isomer 1], the IC50 is 0.00019 µM against AKT3 and 0.0015 µM against AKT1.

In the case of `CC(C)NC[C@@H](C(=O)N1CCN(c2ncnc3c2[C@@H](C)OC(=O)N3)CC1)c1ccc(Cl)cc1` (single isomer, unassigned) [Example 23 Isomer 2], the values for the IC50 against AKT3 and on AKT1 were 0.042 µM and 0.201 µM, respectively.

With `CC(C)NC[C@@H](C(=O)N1CCN(c2ncnc3c2[C@H](C)OC(=O)N3)CC1)c1ccc(Cl)cc1` (single isomer, unassigned) [Example 24 Isomer 1], the IC50 was found to be 0.061 µM against AKT3 and 0.354 µM against AKT1.

For `CC(C)NC[C@@H](C(=O)N1CCN(c2ncnc3c2N(C)CC(=O)N3)[C@H]2C[C@H]21)c1ccc(Cl)cc1` (single isomer, unassigned) [Example 27 Isomer 1], the values for the IC50 against AKT3 and against AKT1 were 0.00048 µM and 0.022 µM, respectively.

Take `CC(C)NC[C@@H](C(=O)N1C2CCC1CN(c1ncnc3c1[C@H](C)OC(=O)N3)C2)c1ccc(Cl)cc1` (single isomer, unassigned) [Example 32 Isomer 1]: the IC50 against AKT3 is 0.00041 µM; against AKT1, 0.00063 µM.

In the case of `CC(C)NC[C@@H](C(=O)N1C2CCC1CN(c1ncnc3c1[C@@H](C)OC(=O)N3)C2)c1ccc(Cl)cc1` (single isomer, unassigned) [Example 32 Isomer 2], the IC50 against AKT3 was 0.0098 µM; at AKT1 it was 0.025 µM.

As for `CC(C)NC[C@@H](C(=O)N1CC2CCC(C1)N2c1ncnc2c1[C@H](C)OC(=O)N2)c1ccc(Cl)cc1` (single isomer, unassigned) [Example 33 Isomer 1], the IC50 against AKT3 stood at 0.0002 µM; at AKT1, 0.0016 µM.

On to `CC(C)NC[C@@H](C(=O)N1CC2CCC(C1)N2c1ncnc2c1[C@@H](C)OC(=O)N2)c1ccc(Cl)cc1` (single isomer, unassigned) [Example 33 Isomer 2], for which the values for the IC50 against AKT3 and against AKT1 were 0.055 µM and 0.26 µM, respectively.

Take `CC(C)NC[C@@H](C(=O)N1CCN(c2ncnc3c2[C@H](C)OC(=O)N3)[C@@H]2C[C@@H]21)c1ccc(Cl)cc1` (single isomer, unassigned) [Example 34 Isomer 1]: the IC50 at AKT3 stood at 0.045 µM; against AKT1, 0.186 µM.

On to `CC(C)NC[C@@H](C(=O)N1CCN(c2ncnc3c2[C@@H](C)OC(=O)N3)[C@@H]2C[C@@H]21)c1ccc(Cl)cc1` (single isomer, unassigned) [Example 34 Isomer 2], for which the IC50 on AKT3 is 0.089 µM; against AKT1, 0.613 µM.

`CC(C)NC[C@@H](C(=O)N1CCN(c2ncnc3c2[C@@H](C)OC(=O)N3)[C@H]2C[C@H]21)c1ccc(Cl)cc1` (single isomer, unassigned) [Example 34 Isomer 3]: the IC50 on AKT3 turned out to be 0.232 µM; against AKT1, 0.429 µM.

For the molecule `CC(C)NC[C@@H](C(=O)N1CCN(c2ncnc3c2[C@@H]2C[C@@H]2C(=O)N3)CC1)c1ccc(Cl)cc1` (single isomer, unassigned) [Example 40 Isomer 1], the IC50 amounted to 0.012 µM on AKT3 and 0.014 µM at AKT1.

Turning to `CC(C)NC[C@@H](C(=O)N1CCN(c2ncnc3c2[C@H]2C[C@H]2C(=O)N3)CC1)c1ccc(Cl)cc1` (single isomer, unassigned) [Example 40 Isomer 2], the IC50 is 0.061 µM against AKT3 and 0.082 µM against AKT1.

Regarding `CC(C)NC[C@@H](C(=O)N1CCN(c2ncnc3c2C(C)CC(=O)N3)CC1)c1ccc(Cl)cc1` (stereo partly drawn) [Example 1, 4-(4-((S)-2-(4-chlorophenyl)-3-(isopropylamino)propionyl)piperazin-1-yl)-5-methyl-5,8-dihydropyrido[2,3-d]pyrimidin-7(6H)-one], the results for the IC50 at AKT3 and at AKT1 were 0.0016 µM and 0.0024 µM, respectively.

As for `CC(C)NC[C@@H](C(=O)N1CCN(c2ncnc3c2CCC(=O)N3)CC1)c1ccc(Cl)cc1` [Example 3, (S)-4-(4-(2-(4-chlorophenyl)-3-(isopropylamino)propionyl)piperazin-1-yl)-5,8-dihydropyrido[2,3-d]pyrimidin-7(6H)-one], the IC50 against AKT3 is 0.0075 µM; against AKT1, 0.0524 µM.

Turning to `CC(C)NC[C@@H](C(=O)N1CCN(c2ncnc3c2[C@H](C)CC(=O)N3)[C@H](C)C1)c1ccc(Cl)cc1` [Example 7, (R)-4-((R)-4-((S)-2-(4-chlorophenyl)-3-(isopropylamino)propionyl)-2-methylpiperazin-1-yl)-5-methyl-5,8-dihydropyrido[2,3-d]pyrimidin-7(6H)-one], the IC50 at AKT3 was 0.0074 µM; against AKT1, 0.0264 µM.

`CC(C)NC[C@@H](C(=O)N1CCN(c2ncnc3c2[C@H](C)CC(=O)N3)C[C@H]1C)c1ccc(Cl)cc1` [Example 8, (R)-4-((R)-4-((S)-2-(4-chlorophenyl)-3-(isopropylamino)propionyl)-3-methylpiperazin-1-yl)-5-methyl-5,8-dihydropyrido[2,3-d]pyrimidin-7(6H)-one]: the 50% inhibitory concentration (IC50) came to 0.0027 µM against AKT3 and 0.0287 µM on AKT1.

On to `CC(C)NC[C@@H](C(=O)N1CC2CCC(C1)N2c1ncnc2c1[C@H](C)CC(=O)N2)c1ccc(Cl)cc1` [Example 11, (R)-4-(3-((S)-2-(4-chlorophenyl)-3-(isopropylamino)propionyl)-3,8-diazabicyclo[3.2.1]octan-8-yl)-5-methyl-5,8-dihydropyrido[2,3-d]pyrimidin-7(6H)-one], for which the IC50 amounted to 0.00025 µM against AKT3 and 0.0035 µM against AKT1.

Consider `CC(C)NC[C@@H](C(=O)N1CCN(c2ncnc3c2[C@H](C)CC(=O)N3)CC12CC2)c1ccc(Cl)cc1` [Example 12, (R)-4-(4-((S)-2-(4-chlorophenyl)-3-(isopropylamino)propionyl)-4,7-diazaspiro[2.5]octan-7-yl)-5-methyl-5,8-dihydropyrido[2,3-d]pyrimidin-7(6H)-one], for which the figures for the IC50 against AKT3 and against AKT1 were 0.0048 µM and 0.0551 µM, respectively.

Turning to `CC(C)NC[C@@H](C(=O)N1C[C@@H]2CN(c3ncnc4c3[C@H](C)CC(=O)N4)C[C@@H]2C1)c1ccc(Cl)cc1` [Example 13 cis-isomer, cis-(5R)-4-(5-((S)-2-(4-chlorophenyl)-3-(isopropylamino)propionyl)hexahydropyrrole[3,4-c]pyrrole-2(1H)-yl)-5-methyl-5,8-dihydropyrido[2,3-d]pyrimidin-7(6H)-one], the results for the IC50 at AKT3 and against AKT1 were 0.0066 µM and 0.285 µM, respectively.

For `CC(C)NC[C@@H](C(=O)N1CCN(c2ncnc3c2CC(C)C(=O)N3)CC1)c1ccc(Cl)cc1` (stereo partly drawn) [Example 19, 4-(4-((S)-2-(4-chlorophenyl)-3-(isopropylamino)propionyl)piperazin-1-yl)-6-methyl-5,8-dihydropyrido[2,3-d]pyrimidin-7(6H)-one hydrochloride], the IC50 on AKT3 stood at 0.0074 µM; on AKT1, 0.0585 µM.

As for `CC(C)NC[C@@H](C(=O)N1CCN(c2ncnc3c2N(C)CC(=O)N3)CC1)c1ccc(Cl)cc1` [Example 20, (S)-4-(4-(2-(4-chlorophenyl)-3-(isopropylamino)propionyl)piperazin-1-yl)-5-methyl-5,8-dihydropteridine-7(6H)-one hydrochloride], the half-maximal inhibitory concentration (IC50) was determined as 0.0004 µM against AKT3 and 0.0011 µM against AKT1.

On to `CC(C)NC[C@@H](C(=O)N1CCN(c2ncnc3c2C(C)OC(=O)N3)CC1)c1ccc(Cl)cc1` (stereo partly drawn) [Example 23, 5-(4-((S)-2-(4-chlorophenyl)-3-(isopropylamino)propionyl)piperazin-1-yl)-4-methyl-1,4-dihydro-2H-pyrimido[4,5-d][1,3]oxazin-2-one formate], for which the IC50 on AKT3 came to 0.0012 µM; against AKT1 it was 0.006 µM.

As to `CC(C)NC[C@@H](C(=O)N1CC2CCC(C1)N2c1ncnc2c1N(C)CC(=O)N2)c1ccc(Cl)cc1` [Example 26], the IC50 on AKT3 was determined as 0.00052 µM; against AKT1 it was 0.03 µM.

As for `CC(C)NC[C@@H](C(=O)N1CCN(c2ncnc3c2N(C)C(=O)CN3)CC1)c1ccc(Cl)cc1` [Example 35, (S)-4-(4-(2-(4-chlorophenyl)-3-(isopropylamino)propionyl)piperazin-1-yl)-5-methyl-7,8-dihydropteridine-6(5H)-one], the IC50 against AKT3 came out at 0.212 µM; on AKT1, 0.146 µM.

Broadly, the IC50 is the concentration that gives 50% inhibition.
